Read-outs that look alike come from different tables or passages of the source.
Key:
[1] = system: T cells (PBL) on HUVEC where CDH15 or THBS1 were knock-down; assay: T cell transmigration assay using endothelial cells with siRNA knock-down of CDH15 or THBS1; format: cell-based, human; settings: FIG. 4
Experimental: (§1) We measured the transmigration of T cells (PBL) after 6 minutes incubation at 37° C. on TNF-α and IFN-α stimulated endothelial cells (EC) using phase contrast microscopy. Cultured ECs were stimulated by cytokines for 24 hours. Subsequently, peripheral blood lymphocytes (PBL) were purified from the blood of healthy donors. PEPITEM was added to the PBL and these were incubated on the endothelial cells for 6 minutes. Non-adherent PBLs were removed by washing with cell free buffer. Video-microscope images of adherent cells were made from at least 5 fields of view for each EC monolayer. Adherent lymphocytes were either, i) phase bright (PB) and adherent to the apical surface of the endothelium, or ii) phase dark (PD) and migrated through the EC monolayer. The percentage of migrated cells was calculated by dividing the number of migrated cells by the total number of adherent lymphocytes (PB+PD) and multiplying by 100. To determine whether PEPITEM targets T-cells or endothelial cells, we pre-treated T-cells, endothelial cells or both T cells and endothelial cells with PEPITEM.
HUVEC were plated in a 12 well plate (87500 cells per well) for 24 hours or until about 80% confluence. The relevant siRNA were added at a final concentration of 50 nM to 83.75 μl or 82.5 μl if duplex in Optimem media (Life Technologies Invitrogen Compounds). […]

[2] = system: T cells (PBL) on TNF-α and IFN-α stimulated endothelial cells (EC); format: cell-based; settings: FIG. 1
Experimental: as §1

CDH15-FC protein = target: T1, CDH15-FC protein (Homo sapiens, UniProt P55291); assay: Surface plasmon resonance (Biocore 3000), PEPITEM perfused over immobilised CDH15-FC; format: binding; settings: PEPITEM perfused at increasing concentration; FIG. 5
T1 construct: Fc
T1 sequence (P55291 with tags, fused parts or gaps limits assumed): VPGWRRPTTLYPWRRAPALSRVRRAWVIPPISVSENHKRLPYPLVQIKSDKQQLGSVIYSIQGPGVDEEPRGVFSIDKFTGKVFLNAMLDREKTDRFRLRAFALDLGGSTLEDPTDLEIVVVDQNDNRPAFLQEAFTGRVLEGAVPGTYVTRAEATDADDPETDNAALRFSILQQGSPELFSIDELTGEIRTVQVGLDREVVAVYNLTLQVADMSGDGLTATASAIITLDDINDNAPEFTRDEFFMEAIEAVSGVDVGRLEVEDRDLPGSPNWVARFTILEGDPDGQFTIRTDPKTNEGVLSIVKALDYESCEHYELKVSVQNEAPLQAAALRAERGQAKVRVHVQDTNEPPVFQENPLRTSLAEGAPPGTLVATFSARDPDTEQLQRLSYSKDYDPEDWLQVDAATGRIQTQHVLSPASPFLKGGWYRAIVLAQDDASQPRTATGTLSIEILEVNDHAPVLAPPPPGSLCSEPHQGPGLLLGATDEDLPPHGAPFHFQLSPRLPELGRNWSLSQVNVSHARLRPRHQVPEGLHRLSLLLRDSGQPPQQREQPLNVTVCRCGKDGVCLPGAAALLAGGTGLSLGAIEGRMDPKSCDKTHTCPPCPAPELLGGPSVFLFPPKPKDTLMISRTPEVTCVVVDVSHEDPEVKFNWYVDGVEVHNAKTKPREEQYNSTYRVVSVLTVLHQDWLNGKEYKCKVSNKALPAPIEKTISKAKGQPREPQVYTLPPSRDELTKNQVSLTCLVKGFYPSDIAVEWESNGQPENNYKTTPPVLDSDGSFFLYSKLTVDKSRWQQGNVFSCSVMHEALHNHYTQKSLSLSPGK
From the text: Gold-coated chips were used to analyse the interaction of CDH15 with PEPITEM in the Biocore 3000 instrument. CDH15-FC protein was immobilised on a Biocore chip. PEPITEM was perfused through the Biocore cell at increasing concentration. […] This provides further evidence that cadherin-15 is the PEPITEM receptor.

PEPITEM (SVTEQGAELSNEER; listed as Homo sapiens)
inhibitory effect on T cell transmigration ([1]; endothelial cells with CDH15 (cadherin-15) knockdown): released T-cells from the inhibitory effects | effect on T-cell trafficking ([1]; endothelial cells with THBS1 (thrombospondin-1) knockdown, presence of PEPITEM): no significant effect | inhibition of T cell transmigration ([2]; T-cells alone pre-treated with PEPITEM): ineffective at inhibiting transmigration | inhibition of T cell transmigration ([2]; endothelial cells pre-treated with PEPITEM): transmigration is successfully inhibited | binding to CDH15 protein (changes in SPR) (CDH15-FC protein): able to bind to the CDH15 protein

— patent publication US20160152704A1, “CADHERIN 15 AGONISTS” (THE UNIVERSITY OF BIRMINGHAM, priority 2013, published 2016)
